Assay results published in US11420958B2, “Aryl and heteroaryl substituted indole compounds” (BRISTOL-MYERS SQUIBB COMPANY, priority 2017, dated 2022).

Columns and labels:
Type in all cases: cell-based
[1] = biological target: human TLR7 (Homo sapiens (Human), UniProt Q9NYK1); experiment: TLR7 inhibition reporter assay (HEK-Blue, SEAP); conditions: HEK-Blue cells overexpressing human TLR7, gardiquimod 7.5 μM stimulation
Method: (§1) TLR7/8/9 Inhibition Reporter Assays
(§2) HEK-Blue™-cells (Invivogen) overexpressing human TLR7, TLR8 or TLR9 receptors were used for screening inhibitors of these receptors using an inducible SEAP (secreted embryonic alkaline phosphatase) reporter gene under the control of the IFN-β minimal promoter fused to five NF-κc Band AP-1-binding sites. Briefly, cells are seeded into Greiner 384 well plates (15000 cells per well for TLR7, 20,000 for TLR8 and 25,000 for TLR9) and then treated with test compounds in DMSO to yield a final dose response concentration range of 0.05 nM-50 μM. After a 30 minute compound pre-treatment at room temperature, the cells are then stimulated with a TLR7 ligand (gardiquimod at a final concentration of 7.5 μM), TLR8 ligand (R848 at a final concentration of 15.9 μM) or TLR9 ligand (ODN2006 at final concentration of 5 nM) to activate NF-κB and AP-1 which induce the production of SEAP. After a 22 hour incubation at 37° C., 5% CO2, SEAP levels are determined with the addition of HEK-Bue™ Detection reagent (Invivogen), a cell culture medium that allows for detection of SEAP, according to manufacturer's specifications. The percent inhibition is determined as the % reduction in the HEK-Blue signal present in wells treated with agonist plus DMSO alone compared to wells treated with a known inhibitor.

[2] = biological target: human TLR9 (Homo sapiens (Human), UniProt Q9NR96); experiment: TLR9 inhibition reporter assay (HEK-Blue, SEAP); conditions: HEK-Blue cells overexpressing human TLR9, ODN2006 5 nM stimulation
Method: as §1, §2

[3] = biological target: human TLR8 (Homo sapiens (Human), UniProt Q9NR97); experiment: TLR8 inhibition reporter assay (HEK-Blue, SEAP); conditions: HEK-Blue cells overexpressing human TLR8, R848 15.9 μM stimulation
Method: as §1, §2

Sequence of human TLR9 (Q9NR96 26-1032): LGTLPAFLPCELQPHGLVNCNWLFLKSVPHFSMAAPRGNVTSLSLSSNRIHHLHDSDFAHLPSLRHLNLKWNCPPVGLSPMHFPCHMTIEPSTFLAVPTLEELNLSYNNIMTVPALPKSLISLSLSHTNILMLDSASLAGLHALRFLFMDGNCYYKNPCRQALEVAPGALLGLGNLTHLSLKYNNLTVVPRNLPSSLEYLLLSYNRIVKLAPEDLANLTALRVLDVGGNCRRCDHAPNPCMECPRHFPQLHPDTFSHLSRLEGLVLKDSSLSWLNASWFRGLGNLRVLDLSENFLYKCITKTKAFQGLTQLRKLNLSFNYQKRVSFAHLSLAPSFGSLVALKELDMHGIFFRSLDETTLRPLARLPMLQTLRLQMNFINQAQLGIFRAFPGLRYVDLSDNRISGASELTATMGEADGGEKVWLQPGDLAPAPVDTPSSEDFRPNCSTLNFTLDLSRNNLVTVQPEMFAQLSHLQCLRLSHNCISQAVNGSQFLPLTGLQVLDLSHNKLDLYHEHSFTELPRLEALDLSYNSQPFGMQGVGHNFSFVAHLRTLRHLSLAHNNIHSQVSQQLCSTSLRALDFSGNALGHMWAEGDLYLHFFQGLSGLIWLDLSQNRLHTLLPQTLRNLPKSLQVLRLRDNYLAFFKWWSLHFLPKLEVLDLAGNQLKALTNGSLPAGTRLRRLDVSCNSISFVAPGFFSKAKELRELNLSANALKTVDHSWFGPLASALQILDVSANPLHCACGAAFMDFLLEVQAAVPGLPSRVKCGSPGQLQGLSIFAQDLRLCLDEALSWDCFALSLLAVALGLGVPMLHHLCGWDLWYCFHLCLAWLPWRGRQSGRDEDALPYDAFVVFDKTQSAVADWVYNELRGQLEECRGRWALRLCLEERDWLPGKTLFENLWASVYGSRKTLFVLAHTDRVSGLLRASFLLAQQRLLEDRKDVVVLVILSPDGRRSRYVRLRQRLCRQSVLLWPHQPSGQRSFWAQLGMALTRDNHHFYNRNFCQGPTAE
Sequence of human TLR7 (Q9NYK1 27-1049): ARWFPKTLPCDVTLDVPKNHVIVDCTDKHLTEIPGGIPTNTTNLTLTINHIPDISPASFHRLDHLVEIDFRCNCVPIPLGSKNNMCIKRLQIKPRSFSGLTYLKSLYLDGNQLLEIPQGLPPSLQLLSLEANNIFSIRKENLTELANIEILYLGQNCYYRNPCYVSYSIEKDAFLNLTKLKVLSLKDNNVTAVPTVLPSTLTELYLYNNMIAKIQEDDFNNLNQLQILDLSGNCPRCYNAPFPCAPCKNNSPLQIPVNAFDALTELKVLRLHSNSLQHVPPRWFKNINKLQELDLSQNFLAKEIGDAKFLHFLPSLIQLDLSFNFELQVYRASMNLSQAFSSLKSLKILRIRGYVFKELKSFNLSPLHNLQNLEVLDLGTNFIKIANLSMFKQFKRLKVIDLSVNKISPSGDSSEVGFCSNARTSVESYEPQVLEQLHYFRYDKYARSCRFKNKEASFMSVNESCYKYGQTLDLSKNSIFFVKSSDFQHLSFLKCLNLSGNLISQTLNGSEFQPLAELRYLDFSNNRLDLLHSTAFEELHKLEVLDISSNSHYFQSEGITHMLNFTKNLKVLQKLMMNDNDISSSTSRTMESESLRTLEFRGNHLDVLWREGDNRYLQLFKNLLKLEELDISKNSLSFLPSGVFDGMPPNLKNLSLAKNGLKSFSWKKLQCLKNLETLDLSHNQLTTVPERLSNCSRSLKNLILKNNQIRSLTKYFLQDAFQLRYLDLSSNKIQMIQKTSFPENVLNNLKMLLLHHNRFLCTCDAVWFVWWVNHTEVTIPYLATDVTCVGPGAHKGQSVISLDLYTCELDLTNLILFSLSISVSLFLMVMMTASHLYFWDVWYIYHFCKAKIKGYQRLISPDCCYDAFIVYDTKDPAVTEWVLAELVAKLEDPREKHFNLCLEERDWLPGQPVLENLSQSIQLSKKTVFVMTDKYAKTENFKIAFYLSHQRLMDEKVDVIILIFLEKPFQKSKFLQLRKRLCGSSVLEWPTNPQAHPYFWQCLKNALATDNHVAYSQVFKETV
Sequence of human TLR8 (Q9NR97 27-1041): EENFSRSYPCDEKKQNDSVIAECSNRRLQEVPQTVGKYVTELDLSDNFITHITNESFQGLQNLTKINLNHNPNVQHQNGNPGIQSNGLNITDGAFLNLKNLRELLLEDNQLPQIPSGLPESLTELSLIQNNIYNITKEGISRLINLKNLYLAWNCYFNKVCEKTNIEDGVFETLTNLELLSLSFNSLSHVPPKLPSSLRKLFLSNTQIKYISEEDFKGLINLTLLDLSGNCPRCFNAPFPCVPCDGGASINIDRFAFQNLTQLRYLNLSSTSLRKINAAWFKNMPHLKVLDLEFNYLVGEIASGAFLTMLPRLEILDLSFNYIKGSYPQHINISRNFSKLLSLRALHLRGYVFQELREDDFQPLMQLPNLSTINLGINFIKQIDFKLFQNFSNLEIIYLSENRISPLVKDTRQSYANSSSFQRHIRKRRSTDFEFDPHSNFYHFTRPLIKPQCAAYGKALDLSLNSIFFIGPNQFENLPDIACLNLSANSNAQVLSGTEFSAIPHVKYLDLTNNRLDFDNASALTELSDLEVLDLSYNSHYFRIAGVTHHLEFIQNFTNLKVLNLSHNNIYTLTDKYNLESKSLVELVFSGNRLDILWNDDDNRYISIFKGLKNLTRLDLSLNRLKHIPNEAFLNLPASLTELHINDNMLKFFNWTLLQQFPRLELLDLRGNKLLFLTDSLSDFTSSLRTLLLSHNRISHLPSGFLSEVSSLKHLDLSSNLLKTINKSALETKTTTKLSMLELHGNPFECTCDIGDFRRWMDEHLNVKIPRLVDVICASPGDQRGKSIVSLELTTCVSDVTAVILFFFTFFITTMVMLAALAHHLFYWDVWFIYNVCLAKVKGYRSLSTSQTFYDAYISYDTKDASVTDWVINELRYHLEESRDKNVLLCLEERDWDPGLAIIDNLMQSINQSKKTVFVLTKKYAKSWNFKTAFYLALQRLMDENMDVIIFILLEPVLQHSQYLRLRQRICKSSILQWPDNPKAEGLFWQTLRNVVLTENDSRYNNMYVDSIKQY

Row | IC50 [1] | IC50 [2] | IC50 [3] | SMILES
1 | 332 nM | 595 nM | 44 nM | CC(C)c1c(-c2ccnc3[nH]ncc23)[nH]c2ccc(-c3nnc(CC4CCCNC4)o3)cc12 (stereo not drawn) [Example 182, 2-(3-isopropyl-2-(1H-pyrazolo[3,4-b]pyridin-4-yl)-1H-indol-5-yl)-5-(piperidin-3-ylmethyl)-1,3,4-oxadiazole]
2 | 274 nM | 4910 nM | 55 nM | COc1ccc(-c2[nH]c3ccc(-c4ccc(OC5CCNCC5)cc4)cc3c2C(C)C)cc1OC [Example 410, 2-(3,4-dimethoxyphenyl)-3-isopropyl-5-(4-(piperidin-4-yloxy)phenyl)-1H-indole]
3 | 64 nM | 32900 nM | 46 nM | Cc1cc(-c2[nH]c3ccc(-c4cc5c(s4)CN(C(=O)C[C@H](C)O)CC5)cc3c2C(C)C)cc(C)n1 [Example 351, (S)-1-(2-(2-(2,6-dimethylpyridin-4-yl)-3-isopropyl-1H-indol-5-yl)-4,7-dihydrothieno[2,3-c]pyridin-6(5H)-yl)-3-hydroxybutan-1-one]
4 | 45 nM | 10400 nM | 27 nM | Cc1cc(-c2[nH]c3ccc(-c4nnc(C5CCCNC5)[nH]4)cc3c2C(C)C)ccn1 (stereo not drawn) [Example 164, 3-isopropyl-2-(2-methylpyridin-4-yl)-5-(5-(piperidin-3-yl)-4H-1,2,4-triazol-3-yl)-1H-indole]
5 | 13 nM | 326 nM | 4.7 nM | Cc1cc(-c2[nH]c3ccc(-c4ccc(C(=O)N5CCC(N(C)C)CC5)cc4)cc3c2C(C)C)ccn1 [Example 313, (4-(dimethylamino)piperidin-1-yl)(4-(3-isopropyl-2-(2-methylpyridin-4-yl)-1H-indol-5-yl)phenyl)methanone]
6 | 799 nM | 1870 nM | 45 nM | Cc1cc(-c2[nH]c3ccc(-c4nnc([C@H]5Cc6ccccc6CN5)o4)cc3c2C(C)C)ccn1 [Example 72, (R)-2-(3-isopropyl-2-(2-methylpyridin-4-yl)-1H-indol-5-yl)-5-(1,2,3,4-tetrahydroisoquinolin-3-yl)-1,3,4-oxadiazole]
7 | 169 nM | 3710 nM | 9.6 nM | COc1ccc(-c2[nH]c3ccc(-c4ccc(NCC5CCN(C)C5)cc4)cc3c2C(C)C)cc1OC (stereo not drawn) [Example 386, 4-(2-(3,4-dimethoxyphenyl)-3-isopropyl-1H-indol-5-yl)-N-((1-methylpyrrolidin-3-yl)methyl)aniline]
8 | 39 nM | 367 nM | 7.5 nM | Cc1cc(-c2[nH]c3ccc(-c4nnc(C(=O)N5CCC(NC(C)C)CC5)o4)cc3c2C(C)C)cc(C)n1 [Example 240, (5-(2-(2,6-dimethylpyridin-4-yl)-3-isopropyl-1H-indol-5-yl)-1,3,4-oxadiazol-2-yl)(4-(isopropylamino)piperidin-1-yl)methanone]
9 | 65 nM | 3240 nM | 17 nM | COc1ccc(-c2[nH]c3ccc(-c4cnc(N5CCN(C)CC5)nc4)cc3c2C(C)C)cc1OC [Example 432, 2-(3,4-dimethoxyphenyl)-3-isopropyl-5-(2-(4-methylpiperazin-1-yl)pyrimidin-5-yl)-1H-indole]
10 | 11 nM | 495 nM | 1.3 nM | CNCCNc1ccc(-c2ccc3[nH]c(-c4ccnc(C)c4)c(C(C)C)c3c2)cn1 [Example 202, N1-(5-(3-isopropyl-2-(2-methylpyridin-4-yl)-1H-indol-5-yl)pyridin-2-yl)-N2-methylethane-1,2-diamine]
11 | 28 nM | 1500 nM | 16 nM | Cc1cc(-c2[nH]c3ccc(-c4nnc(C5CCN(C(=O)CN(C)C)CC5)[nH]4)cc3c2C(C)C)ccn1 [Example 186, 2-(dimethylamino)-1-(4-(5-(3-isopropyl-2-(2-methylpyridin-4-yl)-1H-indol-5-yl)-4H-1,2,4-triazol-3-yl)piperidin-1-yl)ethan-1-one]
12 | 26 nM | 542 nM | 1.4 nM | Cc1cc(-c2[nH]c3ccc(-c4nnc(CC5CCCCN5)o4)cc3c2C(C)C)ccn1 (stereo not drawn) [Example 138, 2-(3-isopropyl-2-(2-methylpyridin-4-yl)-1H-indol-5-yl)-5-(piperidin-2-ylmethyl)-1,3,4-oxadiazole]
13 | 980 nM | 2790 nM | 6 nM | Cc1cc(-c2[nH]c3ccc(-c4nnc(C5CCCC(N)C5)o4)cc3c2C(C)C)ccn1 (stereo not drawn) [Example 179, 3-(5-(3-isopropyl-2-(2-methylpyridin-4-yl)-1H-indol-5-yl)-1,3,4-oxadiazol-2-yl)cyclohexan-1-amine]
14 | 28 nM | 328 nM | 3 nM | Cc1cc(-c2[nH]c3ccc(-c4nnc(C5CCCN(C(C)C)C5)[nH]4)cc3c2C(C)C)ccn1 (stereo not drawn) [Example 188, 3-isopropyl-5-(5-(1-isopropylpiperidin-3-yl)-4H-1,2,4-triazol-3-yl)-2-(2-methylpyridin-4-yl)-1H-indole]
15 | 145 nM | 1950 nM | 12 nM | CCc1c(-c2ccnc3[nH]ncc23)[nH]c2ccc(-c3ccc(N4CCN(C)CC4)cc3)cc12 [Example 384, 4-(3-ethyl-5-(4-(4-methylpiperazin-1-yl)phenyl)-1H-indol-2-yl)-1H-pyrazolo[3,4-b]pyridine]
16 | 57 nM | 25200 nM | 176 nM | Cc1cc(-c2[nH]c3ccc(-c4ccn5ncnc5c4C)cc3c2C(C)C)cc(C)n1 [Example 355, 7-(2-(2,6-dimethylpyridin-4-yl)-3-isopropyl-1H-indol-5-yl)-8-methyl-[1,2,4]triazolo[1,5-a]pyridine]
17 | 203 nM | 686 nM | 4.4 nM | CC(C)CN1CCC(NC(=O)c2nnc(-c3ccc4[nH]c(-c5ccnc6[nH]ncc56)c(C(C)C)c4c3)o2)CC1 [Example 214, N-(1-isobutylpiperidin-4-yl)-5-(3-isopropyl-2-(1H-pyrazolo[3,4-b]pyridin-4-yl)-1H-indol-5-yl)-1,3,4-oxadiazole-2-carboxamide]
18 | 29 nM | 695 nM | 1.7 nM | Cc1cc(-c2[nH]c3ccc(-c4nnc(CCCN(C)C)o4)cc3c2C(C)C)ccn1 [Example 77, 3-(5-(3-isopropyl-2-(2-methylpyridin-4-yl)-1H-indol-5-yl)-1,3,4-oxadiazol-2-yl)-N,N-dimethylpropan-1-amine]
19 | 4.8 nM | 289 nM | 4.8 nM | Cc1cc(-c2[nH]c3ccc(-c4ccc(N5CCN(C(C)C)CC5)nc4)cc3c2C(C)C)cc(C)n1 [Example 306, 2-(2,6-dimethylpyridin-4-yl)-3-isopropyl-5-(6-(4-isopropylpiperazin-1-yl)pyridin-3-yl)-1H-indole]
20 | 78 nM | 593 nM | 18 nM | CCc1c(-c2ccnc(C)c2)[nH]c2ccc(-c3noc(C4CCNC4)n3)cc12 (stereo not drawn) [Example 456, 3-(3-ethyl-2-(2-methylpyridin-4-yl)-1H-indol-5-yl)-5-(pyrrolidin-3-yl)-1,2,4-oxadiazole]
21 | 27 nM | 564 nM | 1.8 nM | Cc1cc(-c2[nH]c3ccc(-c4nnc(C5CCCN(C)C5)o4)cc3c2C(C)C)ccn1 (stereo not drawn) [Example 169, 2-(3-isopropyl-2-(2-methylpyridin-4-yl)-1H-indol-5-yl)-5-(1-methylpiperidin-3-yl)-1,3,4-oxadiazole]
22 | 39 nM | 6910 nM | 1.4 nM | Cc1cc(-c2[nH]c3ccc(-c4nnc(C[C@@H]5CCCN5)o4)cc3c2C(C)C)ccn1 [Example 71, (S)-2-(3-isopropyl-2-(2-methylpyridin-4-yl)-1H-indol-5-yl)-5-(pyrrolidin-2-ylmethyl)-1,3,4-oxadiazole]
23 | 229 nM | 366 nM | 4.5 nM | CC(C)c1c(-c2ccnc3[nH]ncc23)[nH]c2ccc(-c3nc(C(=O)NCCN(C)C)co3)cc12 [Example 234, N-(2-(dimethylamino)ethyl)-2-(3-isopropyl-2-(1H-pyrazolo[3,4-b]pyridin-4-yl)-1H-indol-5-yl)oxazole-4-carboxamide]
24 | 744 nM | 41100 nM | 82 nM | COc1ccc(-c2[nH]c3ccc(-c4cccc(C(=O)NCC#N)c4)cc3c2CC(F)(F)F)cc1OC [Example 27, N-(cyanomethyl)-3-(2-(3,4-dimethoxyphenyl)-3-(2,2,2-trifluoroethyl)-1H-indol-5-yl)benzamide]
25 | 12 nM | 340 nM | 2.9 nM | Cc1cc(-c2[nH]c3ccc(-c4ccc(N5CCNCC5)nc4)cc3c2C(C)C)ccn1 [Example 255, 3-isopropyl-2-(2-methylpyridin-4-yl)-5-(6-(piperazin-1-yl)pyridin-3-yl)-1H-indole]
26 | 576 nM | > 50000 nM | 72 nM | Cc1cc(-c2[nH]c3ccc(-c4nnc(CC(F)(F)F)o4)cc3c2C(C)C)ccn1 [Example 75, 2-(3-isopropyl-2-(2-methylpyridin-4-yl)-1H-indol-5-yl)-5-(2,2,2-trifluoroethyl)-1,3,4-oxadiazole]
